# Values joined by “and” are separate entries in the source; they are usually repeats but may differ in a detail not shown here. Equal entries are not always repeated. Toxic doses and inconclusive results are not listed.
# Test system: P388 leukemia ip, CD2F1 mice, survival T/C
# Test: NCI In Vivo Anticancer Drug Screen. Data for tumor model P388 Leukemia (intraperitoneal) in CD2F1 (CDF1) mice
# Settings: endpoint: median survival time, higher = longer survival
# In short: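 Mice carrying the transplanted tumor received test compound or vehicle. Survival was recorded in each group, and the value is the treated-group measurement divided by that of the vehicle-treated control group.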
# [1] = dose: 0.15 mg/kg/injection, schedule: Q01DX009 (ip), vehicle: saline
# [2] = dose: 20.0 mg/kg/injection, schedule: Q04DX003 (ip), vehicle: saline with Tween-80
# [3] = dose: 75.0 mg/kg/injection, schedule: Q04DX003 (ip), vehicle: saline with Tween-80
# [4] = dose: 50.0 mg/kg/injection, schedule: Q01DX005 (ip), vehicle: saline with Tween-80
# [5] = dose: 100.0 mg/kg/injection, schedule: Q01DX005 (ip), vehicle: saline with Tween-80
# [6] = dose: 200.0 mg/kg/injection, schedule: Q01DX005 (ip), vehicle: saline with Tween-80
# [7] = dose: 60.0 mg/kg/injection, schedule: Q01DX005 (ip), vehicle: saline with Tween-80
# [8] = dose: 120.0 mg/kg/injection, schedule: Q01DX005 (ip), vehicle: saline with Tween-80
# [9] = dose: 240.0 mg/kg/injection, schedule: Q01DX005 (ip), vehicle: saline with Tween-80
# [10] = dose: 50.0 mg/kg/injection, schedule: Q01DX009 (ip), vehicle: saline with Tween-80
smiles,measurement,setting,value
CC1CCCCC1(O)Cc1ccccc1 (stereo not drawn),T/C,"dose: 50.0 mg/kg/injection, schedule: Q01DX005 (ip), vehicle: distilled water + alcohol",108 % of control
same,T/C,"dose: 100.0 mg/kg/injection, schedule: Q01DX005 (ip), vehicle: distilled water + alcohol",101 % of control
same,T/C,"dose: 200.0 mg/kg/injection, schedule: Q01DX005 (ip), vehicle: distilled water + alcohol",105 % of control
CCCN=C(N)c1ccc(N=C(N)c2ccc(N=C(N)c3ccc(C(N)=NCCC)cc3)cc2)cc1,T/C,"dose: 0.08 mg/kg/injection, schedule: Q01DX009 (ip), vehicle: saline",100 % of control
same,T/C,[1],100 % of control
same,T/C,"dose: 0.3 mg/kg/injection, schedule: Q01DX009 (ip), vehicle: saline",110 % of control
same,T/C,"dose: 1.25 mg/kg/injection, schedule: Q01DX009 (ip), vehicle: saline",154 % of control
same,T/C,"dose: 2.5 mg/kg/injection, schedule: Q01DX009 (ip), vehicle: saline",118 % of control
same,T/C,"dose: 5.0 mg/kg/injection, schedule: Q04DX003 (ip), vehicle: saline with Tween-80",95 % of control
same,T/C,"dose: 10.0 mg/kg/injection, schedule: Q01DX009 (ip), vehicle: saline",150 % of control
same,T/C,"dose: 10.0 mg/kg/injection, schedule: Q04DX003 (ip), vehicle: saline with Tween-80",100 % of control
same,T/C,"dose: 15.0 mg/kg/injection, schedule: Q01DX009 (ip), vehicle: saline",172 % of control
same,T/C,"dose: 20.0 mg/kg/injection, schedule: Q01DX009 (ip), vehicle: saline with Tween-80",200 % of control
same,T/C,[2],100 % of control
COc1ccc2c(Nc3ccc(NS(C)(=O)=O)cc3)c3ccccc3nc2c1,T/C,"dose: 0.07 mg/kg/injection, schedule: Q01DX009 (ip), vehicle: saline",99 % of control
same,T/C,"dose: 0.1 mg/kg/injection, schedule: Q01DX009 (ip), vehicle: saline",113 % of control
same,T/C,[1],116 % of control
same,T/C,"dose: 0.23 mg/kg/injection, schedule: Q01DX009 (ip), vehicle: saline",122 % of control
same,T/C,"dose: 1.1 mg/kg/injection, schedule: Q04DX003 (ip), vehicle: saline with Tween-80",119 % of control
same,T/C,"dose: 2.5 mg/kg/injection, schedule: Q01DX009 (ip), vehicle: saline with Tween-80",164 % of control
same,T/C,"dose: 5.0 mg/kg/injection, schedule: Q01DX009 (ip), vehicle: saline with Tween-80",194 % of control
same,T/C,"dose: 9.38 mg/kg/injection, schedule: Q01DX009 (ip), vehicle: saline with Tween-80",218 % of control
same,T/C,"dose: 10.0 mg/kg/injection, schedule: Q01DX009 (ip), vehicle: saline with Tween-80",270 % of control
same,T/C,"dose: 13.2 mg/kg/injection, schedule: Q04DX003 (ip), vehicle: saline with Tween-80",163 % of control
same,T/C,"dose: 18.7 mg/kg/injection, schedule: Q01DX009 (ip), vehicle: saline with Tween-80",97 % of control
same,T/C,[2],168 % of control
same,T/C,"dose: 22.0 mg/kg/injection, schedule: Q04DX003 (ip), vehicle: saline with Tween-80",175 % of control
same,T/C,"dose: 30.0 mg/kg/injection, schedule: Q04DX003 (ip), vehicle: saline with Tween-80",200 % of control
same,T/C,"dose: 33.0 mg/kg/injection, schedule: Q04DX003 (ip), vehicle: saline with Tween-80",204 % of control
same,T/C,"dose: 50.0 mg/kg/injection, schedule: Q04DX003 (ip), vehicle: saline with Tween-80",216 % of control
same,T/C,[3],237 % of control
O=C(O)COc1cc(Cl)c(Cl)cc1Cl,T/C,"dose: 6.25 mg/kg/injection, schedule: Q01DX005 (ip), vehicle: saline with Tween-80",98 % of control
same,T/C,"dose: 12.5 mg/kg/injection, schedule: Q01DX005 (ip), vehicle: saline with Tween-80",100 % of control
same,T/C,"dose: 25.0 mg/kg/injection, schedule: Q01DX005 (ip), vehicle: saline with Tween-80",98 % of control
same,T/C,[4],98 % of control
same,T/C,[5],106 % of control
same,T/C,[6],97 % of control
Cc1ccc(S(=O)(=O)F)cc1C(=O)O,T/C,[7],101 % of control
same,T/C,[8],93 % of control
BrC1=NOC2c3cccc4cccc(c34)C12 (stereo not drawn),T/C,[7],108 % of control
same,T/C,[8],106 % of control
same,T/C,[9],105 % of control
CSc1c(C)c(C)nn1-c1ccccc1,T/C,[7],104 % of control
same,T/C,[8],111 % of control
same,T/C,[9],104 % of control
[Cl][Sn]([Cl])([S]c1nccc2ccccc12)[S]c1nccc2ccccc12,T/C,[10],102 % of control
same,T/C,"dose: 100.0 mg/kg/injection, schedule: Q01DX009 (ip), vehicle: saline with Tween-80",93 % of control
same,T/C,"dose: 200.0 mg/kg/injection, schedule: Q01DX009 (ip), vehicle: saline with Tween-80",93 % of control
COC(=O)CCCCC(=O)OC,T/C,"dose: 100.0 mg/kg/injection, schedule: Q04DX003 (ip), vehicle: saline",109 % of control
same,T/C,"dose: 200.0 mg/kg/injection, schedule: Q04DX003 (ip), vehicle: saline",109 % of control
same,T/C,"dose: 400.0 mg/kg/injection, schedule: Q04DX003 (ip), vehicle: saline",109 % of control
CC(C)NC(=O)c1ccccc1Sc1ccccc1CN(C)C(C)C,T/C,"dose: 25.0 mg/kg/injection, schedule: Q01DX001 (ip), vehicle: saline with Tween-80",99 % of control
same,T/C,"dose: 50.0 mg/kg/injection, schedule: Q01DX001 (ip), vehicle: saline with Tween-80",95 % of control
same,T/C,"dose: 100.0 mg/kg/injection, schedule: Q01DX001 (ip), vehicle: saline with Tween-80",98 % of control and 102 % of control
CCOC(=O)c1c(-c2ccccc2)nn(CC(N)=O)c1CO,T/C,[4],100 % of control
same,T/C,[5],105 % of control
same,T/C,[6],103 % of control
CC(=O)NC(=S)Nc1ccccc1,T/C,"dose: 25.0 mg/kg/injection, schedule: Q01DX001 (ip), vehicle: Klucel (hydroxypropylcellulose) (HPC)",100 % of control
same,T/C,"dose: 50.0 mg/kg/injection, schedule: Q01DX001 (ip), vehicle: Klucel (hydroxypropylcellulose) (HPC)",101 % of control
same,T/C,"dose: 100.0 mg/kg/injection, schedule: Q01DX001 (ip), vehicle: Klucel (hydroxypropylcellulose) (HPC)",103 % of control
COc1cc(/C=C/c2cccs2)oc(=O)c1,T/C,"dose: 50.0 mg/kg/injection, schedule: Q01DX009 (ip), vehicle: Klucel (hydroxypropylcellulose) (HPC)",103 % of control
same,T/C,"dose: 100.0 mg/kg/injection, schedule: Q01DX009 (ip), vehicle: Klucel (hydroxypropylcellulose) (HPC)",103 % of control
same,T/C,"dose: 200.0 mg/kg/injection, schedule: Q01DX009 (ip), vehicle: Klucel (hydroxypropylcellulose) (HPC)",103 % of control
CCOC(=O)c1ccc2c(c1)NCc1cccc(OC)c1O2,T/C,"dose: 60.0 mg/kg/injection, schedule: Q01DX005 (ip), vehicle: Klucel (hydroxypropylcellulose) (HPC)",100 % of control
same,T/C,"dose: 120.0 mg/kg/injection, schedule: Q01DX005 (ip), vehicle: Klucel (hydroxypropylcellulose) (HPC)",103 % of control
same,T/C,"dose: 240.0 mg/kg/injection, schedule: Q01DX005 (ip), vehicle: Klucel (hydroxypropylcellulose) (HPC)",100 % of control
C=CCC(C)/C(=N\[N+](C)(C)C)c1ccccc1 (stereo not drawn),T/C,"dose: 12.5 mg/kg/injection, schedule: Q01DX001 (ip), vehicle: saline",100 % of control
same,T/C,"dose: 25.0 mg/kg/injection, schedule: Q01DX001 (ip), vehicle: saline",106 % of control
same,T/C,"dose: 50.0 mg/kg/injection, schedule: Q01DX001 (ip), vehicle: saline",99 % of control
C=C1[C@@H](O)C[C@@H]2C[C@@]3(C)[C@H](C(C)(C)C[C@@H]3O)C12O (stereo partly drawn),T/C,"dose: 3.75 mg/kg/injection, schedule: Q01DX005 (ip), vehicle: saline",98 % of control
same,T/C,"dose: 7.5 mg/kg/injection, schedule: Q01DX005 (ip), vehicle: saline",100 % of control
same,T/C,"dose: 15.0 mg/kg/injection, schedule: Q01DX005 (ip), vehicle: saline",98 % of control
CCOC(=O)C(C(=O)c1ccccc1)c1cc(NS(=O)(=O)c2ccccc2)ccc1O (stereo not drawn),T/C,"dose: 12.5 mg/kg/injection, schedule: Q01DX009 (ip), vehicle: saline with Tween-80",90 % of control
same,T/C,"dose: 25.0 mg/kg/injection, schedule: Q01DX009 (ip), vehicle: saline with Tween-80",100 % of control
same,T/C,[10],105 % of control
same,T/C,[3],100 % of control
same,T/C,"dose: 150.0 mg/kg/injection, schedule: Q04DX003 (ip), vehicle: saline with Tween-80",100 % of control
same,T/C,"dose: 300.0 mg/kg/injection, schedule: Q04DX003 (ip), vehicle: saline with Tween-80",100 % of control
